Data set [1] has as its system E. coli ΔtolC. Conditions: microdilution in Mueller-Hinton broth, 10 h at 37°C, visual read-out, triplicate. (In general: Broth dilution looks for growth in wells or tubes with falling amounts of substance.)
Data set [2] deals with M. tuberculosis H37Rv.
The subject of data set [3] is M. tuberculosis S17. The following applies: clinical isolate susceptible to isoniazid and rifampicin; Alamar blue, 7H9 broth, triplicate wells. For orientation: Resazurin is reduced to fluorescent resorufin, in cell work by metabolically active cells.
Data set [4] has as its system P. aeruginosa 11. The following applies: microdilution in Mueller-Hinton broth, 10 h at 37°C, visual read-out, triplicate.
Data set [5] has as its system M. Phlei. The following applies: microdilution in Mueller-Hinton broth, 10 h at 37°C, visual read-out, triplicate.
The test system of data set [6] is Mtb H37Rv. Conditions: Figure 1F, ref Tran et al., 2017, cited from earlier work.
Data set [7] deals with M. tuberculosis H37Rv. Nature of the data set: microbe, parasite or virus in culture. Conditions: Mycobacterium tuberculosis, read-out: MIC M. tuberculosis H37Rv.
Data set [8] relates to M. tuberculosis S17. Nature of the data set: microbe, parasite or virus in culture. Conditions: Mycobacterium tuberculosis, S17, read-out: MIC M. tuberculosis S17.
For data set [9], the system named is MraY B. subtilis. The following applies: Figure 1F; ref Inukai et al., 1993; cited from earlier work. The source says:
(§1) FIGURE 1 Chemical structures of natural UPAs (black) and synthetic analogues with modified 5′-aminouridine moiety (blue) and their corresponding inhibitory activity. (A) The pseudo-tetrapeptide backbone of UPAs. (B) The chemical structures of 5′-aminouridine of natural UPAs. (C–E) The chemical structures of modified 5′-aminouridine of synthetic analogues. (F) Detailed information on structure and inhibitory activities of natural UPAs and synthesized derivatives. Pae, Pseudomonas aeruginosa; Mtb, Mycobacterium tuberculosis; B. subtilis, Bacillus subtilis; S. aureus, Staphylococcus aureus; A. ae ...

Data set [10] concerns Pae PAM1020. The following applies: Figure 1F; ref Boojamra et al., 2001; cited from earlier work.
The test system of data set [11] is MraY A. aeolicus. Conditions: Figure 1F, ref Mashalidis et al., 2019, cited from earlier work.
Description: as §1

The nature of data set [12]: Stability in KH2PO4 buffer, HPLC. It is filed as physicochemical. Conditions: chemical stability, 0.05 M KH2PO4 buffer pH 6.0, room temperature (method: 28 °C), HPLC peak area, three parallel repeats. Here is the method: Poor stability is one of the factors hindering the development of sansanmycin analogues into drug candidates. Thus, we conducted stability experiments followed the method reported previously ([Shi et al., 2016]) on the two active sansanmycin analogues, SS-KK-2 and SS-KK-3 (Figure 5). These experiments were carried out at room temperature with the parent compound SS-A as a control.
FIGURE 5 Stability of SS-A, SS-KK-2 and SS-KK-3. (A–C) HPLC analysis of SS-A, SS-KK-2 and SS-KK-3 at indicated days in KH2PO4 buffer (pH 6.0) at room temperature. (D) The changes of the level of SS-A, SS-KK-2 and SS-KK-3 over time. All samples were analyzed by HPLC and quantified according to the areas of peaks. Each sample underwent three parallel repeats. SS-A, black line; SS-KK-2, orange line; SS-KK-3, green line.
The stability assessment of sansanmycin A and its analogues was conducted using a previously reported method ([Shi et al., 2016]). Sansanmycins were dissolved in 0.05 M KH2PO4 buffer (with pH adjusted to 6.0 using NaOH) and incubated at 28 °C for 9 days with testing conducted every 3 days. Each sample underwent three parallel repeats. All samples were analyzed by HPLC and quantified by peak area analysis.

Data set [13] has as its system Mtb H37Rv. Conditions: Figure 1F, natural sansanmycins; reference not given; cited from earlier work.
The test system of data set [14] is Pae PAO1. Conditions: Figure 1F; ref Okamoto et al., 2012; cited from earlier work.
In data set [15] the test system is M. Phlei. Nature of the data set: microbe, parasite or virus in culture. The following applies: Mycolicibacterium phlei, 10 h, read-out: MIC M. Phlei.
Data set [16] deals with P. aeruginosa 11. Nature of the data set: microbe, parasite or virus in culture. Conditions: Pseudomonas aeruginosa, 11, 10 h, read-out: MIC P. aeruginosa 11.

Values after ≈ are worked out from the molar mass of the structure shown. Read-outs that look alike come from different tables or passages of the source.

For the molecule `CSCC[C@H](NC(=O)N[C@@H](Cc1c[nH]c2ccccc12)C(=O)O)C(=O)N[C@H](C(=O)NC[C@H]1O[C@@H](n2ccc(=O)[nH]c2=O)C[C@@H]1O)[C@H](C)N(C)C(=O)[C@@H](N)Cc1cccc(O)c1` [SS-KK-1], in [1], the “MIC E. coli ΔtolC” value was greater than 32 µg/mL. The “MIC M. tuberculosis H37Rv” value in [2] was greater than 64 µg/mL. Further, the “MIC M. tuberculosis S17” value in data set [3] was greater than 64 µg/mL. The “MIC P. aeruginosa 11” value in data set [4] was greater than 32 µg/mL. For the same molecule, the “MIC M. Phlei” value in [5] is greater than 32 µg/mL.
With Dihydrosansanmycin A, the entries for the “MIC50 (Mtb H37Rv)” value in data set [6] (value in brackets) and in [6] were 0.50 ± 0.05 µM and 0.43 µg/mL, respectively.
Dihydrosansanmycin B: the “MIC50 (Mtb H37Rv)” value is 0.30 ± 0.07 µM in data set [6] (value in brackets) and 0.25 µg/mL in data set [6].
In the case of Dihydrosansanmycin C, the “MIC50 (Mtb H37Rv)” value is 18.5 ± 0.70 µM in [6] (value in brackets) and 16 µg/mL in data set [6].
Regarding `NNC(=O)c1ccncc1` [INH, isoniazid], the MIC in data set [7] and in data set [8] was 0.03 µg/mL (≈ 0.219 µM) each time.
As to Mureidomycin A, the “IC50 (MraY B. subtilis)” value in data set [9] was 0.05 µg/mL.
For Dihydropacidamycin D, in [10], the “MIC (Pae PAM1020)” value is 64 µg/mL.
As usually defined, the IC50 is the concentration that inhibits the measured activity by half. Regarding 3′-hydroxymureidomycin A, the IC50 in data set [11] (value in brackets) was 52 nM. In addition, the “IC50 (MraY A. aeolicus)” value in data set [11] is 0.045 µg/mL.
Turning to `CSCC[C@H](NC(=O)N[C@@H](Cc1c[nH]c2ccccc12)C(=O)O)C(=O)N[C@H](C(=O)N/C=C1/C[C@@H](O)[C@H](n2ccc(=O)[nH]c2=O)O1)[C@H](C)N(C)C(=O)[C@@H](N)Cc1cccc(O)c1` [SS-A, sansanmycin A], the “MIC E. coli ΔtolC” value in data set [1] came to 4 µg/mL (≈ 4.63 µM). The “residual quantities after 9 days of incubation” value in data set [12] is “below 70%”. In addition, the “MIC M. tuberculosis H37Rv” value in data set [2] worked out at 16 µg/mL (≈ 18.5 µM). Further, the “MIC M. tuberculosis S17” value in data set [3] turned out to be 16 µg/mL (≈ 18.5 µM). The “MIC P. aeruginosa 11” value in data set [4] came out at 16 µg/mL (≈ 18.5 µM). For the same molecule, the “MIC (Mtb H37Rv)” value in data set [13] was 16 µg/mL (≈ 18.5 µM). Besides, the “MIC M. Phlei” value in data set [5] was determined as 64 µg/mL (≈ 74.1 µM).
Regarding Sansanmycin C, in data set [13], the “MIC (Mtb H37Rv)” value was greater than 32 µg/mL.
For `CSCC[C@H](NC(=O)N[C@@H](Cc1c[nH]c2ccccc12)C(=O)O)C(=O)N[C@H](C(=O)NC[C@H]1O[C@@H](n2ccc(=O)[nH]c2=O)C[C@@H]1O)[C@H](C)N(C)C(=O)[C@@H](N)Cc1ccc(O)cc1` [SS-KK-2], the “MIC E. coli ΔtolC” value in [1] was found to be 1 µg/mL (≈ 1.15 µM). Besides, the “stability compared with SS-A” value in data set [12] (9 days, tested every 3 days) is listed as “slightly higher level of stability than SS-A”. Also, the “MIC M. tuberculosis H37Rv” value in data set [2] came out at 32 µg/mL (≈ 37 µM). Besides, the “MIC M. tuberculosis S17” value in data set [3] is 32 µg/mL (≈ 37 µM). In data set [4], the “MIC P. aeruginosa 11” value was greater than 32 µg/mL. The “MIC M. Phlei” value in [5] is greater than 32 µg/mL.
For `CC(=O)NC[C@H]1CN(c2ccc(N3CCOCC3)c(F)c2)C(=O)O1` [LZD, linezolid], the MIC in [7] and in [8] was 0.25 µg/mL (≈ 0.741 µM) each time.
As for Sansanmycin B, the “MIC (Mtb H37Rv)” value in data set [13] was 8 µg/mL.
As to `CO[C@H]1/C=C/O[C@@]2(C)Oc3c(C)c(O)c4c(O)c(c(/C=N/N5CCN(C)CC5)c(O)c4c3C2=O)NC(=O)/C(C)=C\C=C\[C@H](C)[C@H](O)[C@@H](C)[C@@H](O)[C@@H](C)[C@H](OC(C)=O)[C@@H]1C` [RIF, rifampicin], the MIC in data set [7] came out at 0.125 µg/mL (≈ 0.152 µM); in data set [8], 0.25 µg/mL (≈ 0.304 µM).
With Pacidamycin D, the “MIC (Pae PAO1)” value in data set [14] was 64 µg/mL. In addition, in data set [10], the “MIC (Pae PAM1020)” value is 64 µg/mL.
As for `[H]/N=C(/N)N[C@H]1[C@H](O)[C@@H](O)[C@H](O[C@@H]2O[C@@H](C)[C@](O)(C=O)[C@H]2O[C@@H]2O[C@@H](CO)[C@H](O)[C@@H](O)[C@@H]2NC)[C@@H](N/C(N)=N\[H])[C@@H]1O` [streptomycin], the “MIC E. coli ΔtolC” value in data set [1] amounted to 2 µg/mL (≈ 3.44 µM). The values for the MIC in data set [15] and in data set [16] were 16 µg/mL (≈ 27.5 µM) and 8 µg/mL (≈ 13.8 µM), respectively.
In the case of 3′-hydroxypacidamycin D, in [14], the “MIC (Pae PAO1)” value was 32 µg/mL.
